Test results from patent publication US7150974B1, “Parathyroid hormone receptor binding method” (The General Hospital Corporation, priority 1991, dated 2006).

Columns and labels:
Assay type in all cases: binding
[1] = target: T1, rat bone PTH/PTHrP receptor (Rattus norvegicus, UniProt P25961, E586G); experiment: Radioreceptor assay, COS cells expressing rat bone PTH/PTHrP receptor (R15B); conditions: COS cells expressing R15B, FIG. 13
T1 construct: expressed in transfected cells; host or cells: COS / COS-7 cells, transient, plasmid R15B (pcDNA I)
T1 sequence (P25961 27-591 E586G): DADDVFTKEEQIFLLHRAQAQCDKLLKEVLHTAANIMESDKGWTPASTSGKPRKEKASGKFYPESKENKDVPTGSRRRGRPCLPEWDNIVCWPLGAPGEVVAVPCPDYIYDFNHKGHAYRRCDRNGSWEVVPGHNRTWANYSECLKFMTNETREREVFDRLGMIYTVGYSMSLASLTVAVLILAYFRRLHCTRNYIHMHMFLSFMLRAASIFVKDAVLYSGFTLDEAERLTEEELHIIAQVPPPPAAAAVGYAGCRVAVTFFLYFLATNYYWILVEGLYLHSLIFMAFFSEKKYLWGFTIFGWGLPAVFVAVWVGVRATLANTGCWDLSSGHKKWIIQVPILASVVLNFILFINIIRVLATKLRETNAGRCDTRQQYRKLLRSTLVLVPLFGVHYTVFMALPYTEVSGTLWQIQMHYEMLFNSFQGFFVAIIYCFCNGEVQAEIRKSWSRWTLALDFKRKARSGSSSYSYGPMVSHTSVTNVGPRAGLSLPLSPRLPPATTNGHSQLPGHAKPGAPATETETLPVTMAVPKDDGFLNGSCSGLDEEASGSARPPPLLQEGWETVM
Method: (§1) In brief, the labeled peptide was dissolved in 0.1% trifluoracetic acid (TFA), applied to a C18 Sep-pak cartridge (Waters Associates, Inc., Milford, Mass.) and eluted with a solution of 60% acetonitrile in 0.1% TFA. After lyophilization, the radioligand then was applied to C18-μBondapak column (3.9 mm×30 cm. Waters Associates) and eluted over 30 min with a linear gradient of 30-50% acetonitrile-0.1% TFA at a flow rate of 2 ml/min.
(§2) COS-7 cells were grown in 15 cm plates in DMEM, 10% heat-inactivated […], 10 mg/L gentamycin until 80-90% confluent. Twenty-four hours after transfection by the DEAE/Dextran method (Sambrook et al., supra), with 1-2 μg of plasmid DNA, the cells were trypsinized and replated in multiwell plastic dishes (16 or 35 mm diameter, Costar, Cambridge, Mass.) at a cell concentration of 5×10^4 cells/cm^2). […] After continuing culture for another 48 h, radiorecepter assays were performed. The culture medium was replaced with buffer containing 50 mM Tris-HCL (pH 7.7), 100 mM NaCl, 2 mM CaCl2, 5 mM KCL, 0.5% heat-inactivated fetal bovine serum (GIBCO), and 5% heat-inactivated horse serum (KC Biological Inc., Lenexa, Kans.) immediately before studies were initiated.
(§3) Incubations were terminated by aspirating the buffer, and repeatedly (×3) washing the culture dishes, containing the adherent cells with chilled 0.9% NaCl solution, over a 15 sec period. Cell-bound radioactivity was recovered by the sequential addition (×3) of 1 N NaOH (200 μl) to each well. After 30 min at room temperature, the NaOH was transferred to a glass tube. A second and third extraction with 1 N NaOH (200 μl) were combined with the first, and the total radioactivity was counted in a γ-spectrometer (Packard Instruments, Downers Grove, Ill.).

[2] = target: T2, human kidney PTH/PTHrP receptor (Homo sapiens, UniProt Q03431, L389Q); experiment: Radioreceptor assay, COS-7 cells transiently expressing human kidney PTH/PTHrP receptor (HKrk); conditions: human versus rat receptor
T2 construct: The full-length human kidney PTH/PTHrP receptor cDNA, HKrk, was constructed using the BamHI/PvuII fragment of PCR clone #2 and HK-2; expressed in transfected cells; host or cells: COS-7 cells, transient (DEAE/Dextran), pcDNAI
T2 sequence (Q03431 27-593 L389Q): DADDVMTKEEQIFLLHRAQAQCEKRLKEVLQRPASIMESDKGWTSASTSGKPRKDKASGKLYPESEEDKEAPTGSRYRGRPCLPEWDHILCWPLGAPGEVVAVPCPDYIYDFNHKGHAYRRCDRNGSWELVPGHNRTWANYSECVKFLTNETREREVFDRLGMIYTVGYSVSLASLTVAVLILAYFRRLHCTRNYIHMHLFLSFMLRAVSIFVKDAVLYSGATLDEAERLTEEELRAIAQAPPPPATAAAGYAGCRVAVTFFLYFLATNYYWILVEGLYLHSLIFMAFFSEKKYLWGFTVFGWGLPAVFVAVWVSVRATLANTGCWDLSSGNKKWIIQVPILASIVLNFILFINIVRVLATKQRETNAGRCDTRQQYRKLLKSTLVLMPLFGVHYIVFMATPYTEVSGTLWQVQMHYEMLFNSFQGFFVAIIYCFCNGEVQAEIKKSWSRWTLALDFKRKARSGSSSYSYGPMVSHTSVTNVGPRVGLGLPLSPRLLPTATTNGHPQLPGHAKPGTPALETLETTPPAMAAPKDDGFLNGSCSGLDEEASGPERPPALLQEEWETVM
Method: as §1, §2, §3

[3] = target: T3, opossum kidney PTH/PTHrp receptor clone, OK-O (Didelphis virginiana, UniProt P25107, I132F/S86P); experiment: Radioreceptor assay, COS cells expressing OK-O; conditions: FIG. 11
T3 construct: expressed in transfected cells; host or cells: COS cells, transient, plasmid OK-O (pcDNA I)
T3 sequence (P25107 27-585 S86P/I132F): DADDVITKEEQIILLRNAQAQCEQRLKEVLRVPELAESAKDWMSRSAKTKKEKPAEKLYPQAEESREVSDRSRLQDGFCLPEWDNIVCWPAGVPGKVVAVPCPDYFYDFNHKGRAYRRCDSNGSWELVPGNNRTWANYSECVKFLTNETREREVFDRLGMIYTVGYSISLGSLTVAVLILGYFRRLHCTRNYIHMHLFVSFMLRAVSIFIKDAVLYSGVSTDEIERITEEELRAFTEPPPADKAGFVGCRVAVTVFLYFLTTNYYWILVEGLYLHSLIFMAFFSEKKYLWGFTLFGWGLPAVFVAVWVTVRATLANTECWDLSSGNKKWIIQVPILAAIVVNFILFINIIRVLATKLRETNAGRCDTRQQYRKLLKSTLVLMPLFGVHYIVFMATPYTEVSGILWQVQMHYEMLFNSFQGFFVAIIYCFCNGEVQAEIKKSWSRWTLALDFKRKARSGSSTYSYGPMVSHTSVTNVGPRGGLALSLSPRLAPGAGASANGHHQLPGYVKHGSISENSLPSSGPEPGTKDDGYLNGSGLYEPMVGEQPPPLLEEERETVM
Method: [Nle^8,Nle^18,Tyr^34]bPTH-(1-34)amide (NlePTH), and [Tyr^36]PTHrP(1-36)amide(PTHrP) were iodinated with Na^125I (carrier free, New England Nuclear, Boston, Mass.) as previously reported (Segre et al., J. Biol. Chem. 254: 6980, 1979), and purified by reverse-phase HPLC. In brief, the labeled peptide was dissolved in 0.1% trifluoracetic acid (TFA), applied to a C18 Sep-pak cartridge (Waters Associates, Inc., Milford, Mass.) and eluted with a solution of 60% acetonitrile in 0.1% TFA. After lyophilization, the radioligand then was applied to C18-μBondapak column (3.9 mm×30 cm. Waters Associates) and eluted over 30 min with a linear gradient of 30-50% acetonitrile-0.1% TFA at a flow rate of 2 ml/min. The radioligand eluted in two peaks; the first peak, which eluted at approximately 38% acetonitrile, was used in these studies because it gave higher total and specific bindings. The specific activity was 500±75 mCi/mg, which corresponds to an average iodine-peptide ratio of 1.
COS-7 cells were grown in 15 cm plates in DMEM, 10% heat-inactivated […], 10 mg/L gentamycin until 80-90% confluent. Twenty-four hours after transfection by the DEAE/Dextran method (Sambrook et al., supra), with 1-2 μg of plasmid DNA, the cells were trypsinized and replated in multiwell plastic dishes (16 or 35 mm diameter, Costar, Cambridge, Mass.) at a cell concentration of 5×10^4 cells/cm^2). Cell number increased only slightly after transfection. After continuing culture for another 48 h, radiorecepter assays were performed. […]
as §3, with “After 30 min at room temperature, the NaOH was transferred to a glass tube.” left out, “Ill.). […]” for “Ill.).”

[4] = target: T4, opossum kidney PTH/PTHrP receptor clone, OK-H (Didelphis virginiana, UniProt P25107, I132F/S86P); experiment: Radioreceptor assay, COS cells expressing OK-H; conditions: FIG. 9
T4 construct: expressed in transfected cells; host or cells: COS cells, transient, plasmid OK-H (pcDNA I)
T4 sequence (P25107 other isoform, or with tags, fused parts or gaps S86P/I132F): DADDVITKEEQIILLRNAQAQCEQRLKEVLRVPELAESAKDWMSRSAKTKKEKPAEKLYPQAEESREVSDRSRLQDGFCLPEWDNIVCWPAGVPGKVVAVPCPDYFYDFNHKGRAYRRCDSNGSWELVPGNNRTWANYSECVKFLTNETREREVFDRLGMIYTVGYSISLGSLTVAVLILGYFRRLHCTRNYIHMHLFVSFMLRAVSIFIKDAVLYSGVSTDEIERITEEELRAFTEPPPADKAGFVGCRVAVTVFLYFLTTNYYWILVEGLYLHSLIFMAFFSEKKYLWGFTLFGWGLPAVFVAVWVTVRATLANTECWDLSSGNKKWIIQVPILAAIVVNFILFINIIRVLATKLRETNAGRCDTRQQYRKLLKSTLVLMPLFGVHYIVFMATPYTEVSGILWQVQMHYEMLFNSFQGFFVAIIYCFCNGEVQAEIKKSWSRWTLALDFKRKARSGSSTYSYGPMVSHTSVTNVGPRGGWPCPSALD
Method: as §1, §2, §3

| Substance | inhibition of 125I-PTHrP binding by competitor [1] | fold higher affinity with expressed HKrK than with R15B [2] | inhibition of 125I-PTHrP binding by competitor [3] | inhibition of 125I-PTHrP binding by competitor [4] |
| --- | --- | --- | --- | --- |
| [Nle^8,18, Tyr^34]bPTH(3-34)amide | inhibited | 7 fold | inhibited | inhibited |
| [Nle^8,18, Tyr^34]bPTH(7-34)amide | inhibited |  | inhibited | inhibited |
